Laboratory results from PubChem BioAssay AID328 (DTP/NCI, 2004).
Inconclusive results and toxic doses are left out. Rule for the calls: active = survival T/C of 150% or more; inactive = T/C below 125% in these data. Residues, ends and D or L forms follow the SMILES beside them. *: point of attachment. Cbz = O=C(OCc1ccccc1)*; Bn = c1ccc(C*)cc1; βAla = NCCC(=O)O

Test system: BDF1 mice, P388 leukemia ip, median survival T/C
Experiment: NCI In Vivo Anticancer Drug Screen. Data for tumor model P388 Leukemia (intraperitoneal) in B6D2F1 (BDF1) mice
Conditions: endpoint: median survival time, higher = longer survival
Outline: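 Reported as T/C, where T is the survival measurement in dosed animals and C the same measurement in vehicle controls.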

[1] = dose: 100.0 mg/kg/injection, schedule: Q01DX009 (ip), vehicle: saline with Tween-80
[2] = dose: 200.0 mg/kg/injection, schedule: Q01DX009 (ip), vehicle: saline with Tween-80
[3] = dose: 50.0 mg/kg/injection, schedule: Q01DX009 (ip), vehicle: saline with Tween-80

Measured: T/C

CCOC(=O)CC(COC)C(C(=O)OCC)C(=O)OCC (centres undefined)
inactive: dose: 25.0 mg/kg/injection, schedule: Q01DX009 (ip), vehicle: other 95 % of control | dose: 50.0 mg/kg/injection, schedule: Q01DX009 (ip), vehicle: other 121 % of control | dose: 50.0 mg/kg/injection, schedule: Q04DX003 (ip), vehicle: other 122 % of control | dose: 100.0 mg/kg/injection, schedule: Q01DX009 (ip), vehicle: other 92 % of control | dose: 100.0 mg/kg/injection, schedule: Q04DX003 (ip), vehicle: other 122 % of control | dose: 200.0 mg/kg/injection, schedule: Q01DX009 (ip), vehicle: other 100 % of control | dose: 200.0 mg/kg/injection, schedule: Q04DX003 (ip), vehicle: other 122 % of control | dose: 400.0 mg/kg/injection, schedule: Q04DX003 (ip), vehicle: other 100 % of control

CNc1ccc([N+](=O)[O-])cc1C(=O)OC
inactive: [1] 104 % of control | [2] 96 % of control

Cn1ncc(=O)c(Cl)c1S
inactive: dose: 50.0 mg/kg/injection, schedule: Q01DX005 (ip), vehicle: saline with Tween-80 97 % of control | dose: 100.0 mg/kg/injection, schedule: Q01DX005 (ip), vehicle: saline with Tween-80 93 % of control | dose: 200.0 mg/kg/injection, schedule: Q01DX005 (ip), vehicle: saline with Tween-80 99 % of control

Fc1ccc(NC2=NCCN=C(Nc3ccc(F)cc3)SS2)cc1
inactive: [3] 96 % of control | [1] 87 % of control | [2] 102 % of control

CNc1nc(N)c(N=O)c(Nc2ccc(Br)cc2)n1
inactive: dose: 62.5 mg/kg/injection, schedule: Q01DX010 (ip), vehicle: carboxymethylcellulose (CMC) 105 % of control | dose: 125.0 mg/kg/injection, schedule: Q01DX010 (ip), vehicle: carboxymethylcellulose (CMC) 110 % of control | dose: 250.0 mg/kg/injection, schedule: Q01DX010 (ip), vehicle: carboxymethylcellulose (CMC) 100 % of control | dose: 500.0 mg/kg/injection, schedule: Q01DX010 (ip), vehicle: carboxymethylcellulose (CMC) 100 % of control

O=c1[nH]c2ccc(I)cc2c(=O)o1
inactive: dose: 100.0 mg/kg/injection, schedule: Q04DX003 (ip), vehicle: saline with Tween-80 109 % of control | dose: 200.0 mg/kg/injection, schedule: Q04DX003 (ip), vehicle: saline with Tween-80 104 % of control | dose: 400.0 mg/kg/injection, schedule: Q04DX003 (ip), vehicle: saline with Tween-80 109 % of control

O=C1C(CCO)SC(=S)N1c1ccccc1 (centres undefined)
inactive: [3] 106 % of control | [1] 103 % of control | [2] 102 % of control

O/N=C/C=N/O.O/N=C/C=N/O.[Cl][Rh][Cl]
inactive: dose: 25.0 mg/kg/injection, schedule: Q01DX009 (ip), vehicle: saline 99 % of control | dose: 50.0 mg/kg/injection, schedule: Q01DX009 (ip), vehicle: saline 94 % of control | dose: 100.0 mg/kg/injection, schedule: Q01DX009 (ip), vehicle: saline 108 % of control | dose: 200.0 mg/kg/injection, schedule: Q01DX009 (ip), vehicle: saline 100 % of control | dose: 400.0 mg/kg/injection, schedule: Q01DX009 (ip), vehicle: saline 91 % of control

O=c1oc(-c2ccccc2)nc2c(Cl)ccc(Cl)c12
inactive: dose: 100.0 mg/kg/injection, schedule: Q04DX003 (ip), vehicle: saline 109 % of control | dose: 200.0 mg/kg/injection, schedule: Q04DX003 (ip), vehicle: saline 104 % of control | dose: 400.0 mg/kg/injection, schedule: Q04DX003 (ip), vehicle: saline 104 % of control

CC(C)=CCC/C(C)=C/CO
inactive: dose: 15.6 mg/kg/injection, schedule: Q01DX010 (ip), vehicle: saline 100 % of control | dose: 31.3 mg/kg/injection, schedule: Q01DX010 (ip), vehicle: saline 100 % of control | dose: 62.5 mg/kg/injection, schedule: Q01DX010 (ip), vehicle: saline 113 % of control | dose: 125.0 mg/kg/injection, schedule: Q01DX010 (ip), vehicle: saline 118 % of control

CCCCCCCCCCCCCCCCCC[n+]1cccc(C2CCCN2C)c1 (centres undefined) (tested in a mixture with another compound)
inactive: dose: 25.0 mg/kg/injection, schedule: Q01DX009 (ip), vehicle: Klucel (hydroxypropylcellulose) (HPC) 119 % of control

COC(=O)C(CSCc1ccccc1)NC(=O)C(CSCc1ccccc1)NC(=O)CCNC(=O)OCc1ccccc1 (centres undefined) ({Cbz-βAla}-Cys(Bn)-Cys(Bn)-OMe; configuration not given here)
inactive: dose: 25.0 mg/kg/injection, schedule: Q04DX003 (ip), vehicle: Klucel (hydroxypropylcellulose) (HPC) 102 % of control | dose: 50.0 mg/kg/injection, schedule: Q04DX003 (ip), vehicle: Klucel (hydroxypropylcellulose) (HPC) 100 % of control | dose: 100.0 mg/kg/injection, schedule: Q04DX003 (ip), vehicle: Klucel (hydroxypropylcellulose) (HPC) 95 % of control | dose: 200.0 mg/kg/injection, schedule: Q04DX003 (ip), vehicle: Klucel (hydroxypropylcellulose) (HPC) 93 % of control | dose: 400.0 mg/kg/injection, schedule: Q04DX003 (ip), vehicle: Klucel (hydroxypropylcellulose) (HPC) 93 % of control
